According to patent US20220193063A1, “METABOLITES OF GLP1R AGONISTS” (Pfizer Inc., priority 2020, published 2022):

Columns and labels:
[1] = tested on: female New Zealand rabbit hepatocytes; assay: In vitro metabolism of Compound 1 in rabbit cryopreserved hepatocytes; format: in vitro ADME; details: HPLC/UV/MS; for metabolite of Compound 1 observed in rabbit hepatocyte incubations: 10 μM Compound 1, 7.5×10^5 cells/mL, 1 and 4 hrs composite sample; for Relative abundance of metabolite of Compound 1, Rabbit: rabbit cryopreserved hepatocytes; for Relative abundance of metabolite of Compound 1, Rabbit: key: ND Not detected; trace: Trace: observed by HPLC/MS measurements only; + Minor as assessed by HPLC/UV measurements; ++ moderate as assessed by HPLC/UV measurements; +++ major as assessed by HPLC/UV measurements; * m/z 593 and m/z 505 co-eluted in rabbit hepatocytes; ** m/z 591c and m/z 593 were merged in human hepatocytes and Hepatopack; *** m/z 607 and m/z 751b were merged in rabbit hepatocytes
Method: (§1) Male CD-1 mouse hepatocytes (lot YHL), male Wistar-Han rat hepatocytes (Celsis; product number: M000065; lot: SLA), female New Zealand rabbit hepatocytes (lot 1510147), male cryopreserved cynomolgus monkey hepatocytes (Celsis; product number: M00305; lot: DNB) and mixed-gender cryopreserved human hepatocytes (Bioreclamation; product number: S01988; lot: DCM) were obtained for the hepatocyte in-vitro assessments.
(§2) At time 0 hrs 550 μL aliquots were removed from incubations and quenched with 5 volumes of ACN containing 0.1% formic acid. At 1 and 4 hrs, 275 μL aliquots were removed and quenched as above; these were combined in the same tube to prepare a composite sample. For all hepatocyte experiments, samples were processed by centrifugation at 1900×g for 5 minutes, and then the supernatant was transferred to clean glass tubes and evaporated to dryness under a stream of N2 using a Turbovap at 37° C. Sample residues were reconstituted in mobile phase prior to analysis by HPLC/UV/MS^n.
(§3) Samples were analyzed by HPLC/UV/MS^n using a Thermo Orbitrap Elite mass spectrometer in conjunction with a Thermo Open Accela UHPLC system. A 3.0×150 mm, 2.5 μm Acquity CSH C18 HPLC column (Waters) was heated to 45° C. for separation of analytes. The mobile phase was a gradient of A): water containing 0.1% formic acid, and B): acetonitrile. The flow rate was 450 μL/min, and the following gradient program was utilized: […]
(§4) UV absorbance was monitored with a photo-diode array detector from 220-450 nm. The mass spectrometer was operated in positive-ion mode with a HESI ion source at a potential of 3.0 kV, and capillary and source heater temperatures of 380 and 300° C., respectively. Sheath, auxiliary, and sweep gas flows were set to 45, 10, and 2 units, respectively. Full scan mass spectra were acquired over the range 120-1200 m/z at a resolving power of 30,000 (specified at m/z 400). Data-dependent MS^n spectra were acquired in an automated fashion at 15,000 resolving power using CID and HCD fragmentation with normalized collision energy settings of 28 and 65 V, respectively.
(§5) Metabolites were characterized by comparisons of mass spectral fragmentation patterns with that of a Compound 1 standard. All HPLC/UV/MS^n data were processed using Xcalibur v. 2.2, and integrated UV peak areas were subjected to weighted UV binning procedures utilizing an Excel template.

[2] = tested on: male Wistar-Han rat hepatocytes; assay: In vitro metabolism of Compound 1 in rat cryopreserved hepatocytes; format: in vitro ADME; details: HPLC/UV/MS; for metabolite of Compound 1 observed in rat hepatocyte incubations: 10 μM Compound 1, 7.5×10^5 cells/mL, 1 and 4 hrs composite sample; for Relative abundance of metabolite of Compound 1, Rat: rat cryopreserved hepatocytes; for Relative abundance of metabolite of Compound 1, Rat: key: ND Not detected; trace: Trace: observed by HPLC/MS measurements only; + Minor as assessed by HPLC/UV measurements; ++ moderate as assessed by HPLC/UV measurements; +++ major as assessed by HPLC/UV measurements; * m/z 593 and m/z 505 co-eluted in rabbit hepatocytes; ** m/z 591c and m/z 593 were merged in human hepatocytes and Hepatopack; *** m/z 607 and m/z 751b were merged in rabbit hepatocytes
Method: as §1, §2, §3, §4, §5

[3] = tested on: Male CD-1 mouse hepatocytes; assay: In vitro metabolism of Compound 1 in mouse cryopreserved hepatocytes; format: in vitro ADME; details: HPLC/UV/MS; for metabolite of Compound 1 observed in mouse hepatocyte incubations: 10 μM Compound 1, 7.5×10^5 cells/mL, 1 and 4 hrs composite sample; for Relative abundance of metabolite of Compound 1, Mouse: mouse cryopreserved hepatocytes
Method: as §1, §2, §3, §4, §5

[4] = Metabolites of Compound 1 in rat bile following a 1.0 mg/kg IV bolus dose (bile duct cannulated rat); format: in vivo; details: 1.0 mg/kg IV bolus dose of Compound 1, pooled bile 0-24 hrs, bile duct cannulated male rats
Method: (§6) Plasma and bile samples were obtained from a bile duct cannulated rat experiment (Study PK-0111) in which a 1.0 mg/kg IV bolus dose was administered to fed male rats (N=3). No control plasma was available from this experiment.
Bile samples (0-3, 3-7, and 7-24 hrs) from individual animals were pooled in proportion to the amount collect in each interval. Then 0.5 mL of each individual pool was combined to prepare a composite sample for analysis.
(§7) Pooled plasma and bile samples were extracted with ACN containing 0.1% formic acid, and after centrifugation at 1900×g, the supernatant was transferred to clean tubes and evaporated under N2 in a Turbovap set at 37° C. Residues were reconstituted in mobile phase (5:95 v:v ACN:0.1% aqueous formic acid) prior to analysis by HPLC/UV/MS^n.
as §3, §4, §5

[5] = tested on: male cryopreserved cynomolgus monkey hepatocytes; assay: In vitro metabolism of Compound 1 in monkey cryopreserved hepatocytes; format: in vitro ADME; details: HPLC/UV/MS; for metabolite of Compound 1 observed in monkey hepatocyte incubations: 10 μM Compound 1, 7.5×10^5 cells/mL, 1 and 4 hrs composite sample; for Relative abundance of metabolite of Compound 1, Monkey: monkey cryopreserved hepatocytes; for Relative abundance of metabolite of Compound 1, Monkey: key: ND Not detected; trace: Trace: observed by HPLC/MS measurements only; + Minor as assessed by HPLC/UV measurements; ++ moderate as assessed by HPLC/UV measurements; +++ major as assessed by HPLC/UV measurements; * m/z 593 and m/z 505 co-eluted in rabbit hepatocytes; ** m/z 591c and m/z 593 were merged in human hepatocytes and Hepatopack; *** m/z 607 and m/z 751b were merged in rabbit hepatocytes
Method: as §1, §2, §3, §4, §5

[6] = tested on: mixed-gender cryopreserved human hepatocytes; assay: In vitro metabolism of Compound 1 in human cryopreserved hepatocytes; format: in vitro ADME; details: HPLC/UV/MS; for metabolite of Compound 1 observed in human hepatocyte incubations: 10 μM Compound 1, 7.5×10^5 cells/mL, 1 and 4 hrs composite sample; for Relative abundance of metabolite of Compound 1, Human: human cryopreserved hepatocytes
Method: as §1, §2, §3, §4, §5

[7] = tested on: human co-cultured hepatocytes (Hepatopack); assay: In vitro metabolism of Compound 1 in human micropatterned co-cultured hepatocytes (Hepatopack); format: in vitro ADME; details: human co-cultured hepatocytes (Hepatopack); HPLC/UV/MS; note: key: ND Not detected; trace: Trace: observed by HPLC/MS measurements only; + Minor as assessed by HPLC/UV measurements; ++ moderate as assessed by HPLC/UV measurements; +++ major as assessed by HPLC/UV measurements; * m/z 593 and m/z 505 co-eluted in rabbit hepatocytes; ** m/z 591c and m/z 593 were merged in human hepatocytes and Hepatopack; *** m/z 607 and m/z 751b were merged in rabbit hepatocytes
From the text: Micro-patterned co-cultured (MPCC) hepatocyte 24-well plates containing human donors (16 wells each) were provided by Ascendance Biotechnology (formerly Hepregen Corp. (Medford, Mass.). [see Wang W W W, Khetani S R, Krzyzewski S, et al. Assessment of a Micropatterned Hepatocyte Coculture System to Generate Major Human Excretory and Circulating Drug Metabolites. Drug Metab Dispos 2010; 38(10):1900-51 The MPCCs were created at Ascendance Biotechnology and maintained in serum containing medium for 5-6 days to allow for stabilization of the co-cultures prior to shipment. A mixed-gender cryopreserved pool of 10 human donors (X008001-P; lot YFA) was used to seed the plates and was purchased from BioreclamationlVT (Westbury, N.Y.). MPCC hepatocytes are plated with fibroblasts in a 1:3 ratio with ˜25,000 hepatocytes/well in a 24-well plate. 24-Well MPCC plates were shipped to Pfizer, fresh medium (400 μL/well) was applied and cultures were kept at 37° C. with […] and 95% relative humidity for two days. Micropatterned co-cultures containing pooled hepatocytes were allowed 7 days to fully stabilize with respect to liver-specific functions. […] At respective time points (0, 2, and 7 days), the culture medium was removed and mixed with 4 volumes of ACN, then stored frozen at −40° C. until samples could be analyzed. Samples were subsequently processed by the addition of 2.5 mL of 1:1 ACN:MeOH containing 0.1% formic acid. After vortexing, the samples were centrifuged at 1900×g for 5 min, then the supernatant was transferred to 15 mL conical tubes and evaporated under N2 using a Turbovap set at 37° C. The residues were reconstituted in mobile phase (5:95 v:v ACN:0.1% aqueous formic acid) prior to analysis by HPLC/UV/MS^n.
as §3
as §4, with “Data-dependent MS^n spectra were acquired in an automated fashion at 15,000 resolving power using CID and HCD fragmentation with normalized collision energy settings of 28 and 65 V, respectively.” left out

[8] = Circulating metabolites of Compound 1 in rat plasma following a 1.0 mg/kg IV bolus dose; format: in vivo; details: 1.0 mg/kg IV bolus dose of Compound 1, pooled plasma 0.033-24 hrs, male rats
Method: as §6
Clin Pharmacol Ther 1981; 29(3):408-13]. The entire volume of each replicate Hamilton pool was combined to create a single pooled sample (576 μL) for analysis.
as §7, §3, §4, §5

metabolite of Compound 1 observed in rabbit hepatocyte incubations [1]	metabolite of Compound 1 observed in rat hepatocyte incubations [2]	metabolite of Compound 1 observed in mouse hepatocyte incubations [3]	detected in rat bile [4]	detected in rat bile ([4]; listed as m/z 331)	metabolite of Compound 1 observed in monkey hepatocyte incubations [5]	Relative abundance of metabolite of Compound 1, Monkey [5]	Relative abundance of metabolite of Compound 1, Rabbit [1]	Relative abundance of metabolite of Compound 1, Rat [2]	Relative abundance of metabolite of Compound 1, Mouse [3]	metabolite of Compound 1 observed in human hepatocyte incubations [6]	Relative abundance of metabolite of Compound 1, Human [6]	Relative abundance of metabolite of Compound 1, Hepatopack [7]	detected in rat plasma [8]	detected in rat plasma ([8]; listed as m/z 331)	SMILES
–	–	–	–	–	–	–	–	trace	trace	–	–	–	–	–	C[C@]1(c2ccc(Cl)cn2)Oc2cccc(C3CCN(Cc4nc5ccc(C(=O)O)cc5[nH]4)CC3)c2O1 [Metabolite 505]
–	–	–	–	–	–	+++	++	+	++	–	+++	++	–	–	CC1(c2ccc(Cl)cn2)Oc2cccc(C3CCN(Cc4nc5ccc(C(=O)OC6OC(C(=O)O)C(O)C(O)C6O)cc5n4CC4CCO4)CC3)c2O1 (stereo not shown) [Metabolite 751b]
–	–	–	detected	–	–	–	–	–	–	–	–	–	detected	–	C[C@]1(c2ccc(Cl)cn2)Oc2cccc(C3CCN(Cc4nc5ccc(C(=O)O)cc5n4C[C@@H]4CCO4)CC3)c2O1 [Compound 1, 2-((4-((S)-2-(5-chloropyridin-2-yl)-2-methylbenzo[d][1,3]dioxol-4-yl)piperidin-1-yl)methyl)-1-(((S)-oxetan-2-yl)methyl)-1H-benzo[d]imidazole-6-carboxylic acid]
observed	observed	observed	–	–	observed	–	–	–	–	observed	–	–	–	–	C[C@]1(c2ccc(Cl)cn2)Oc2cccc(C3CC[N+]([O-])(Cc4nc5ccc(C(=O)O)cc5n4C[C@@H]4CCO4)CC3)c2O1 (stereo partly shown) [Metabolite 591d]
observed	observed	observed	–	–	observed	–	–	–	–	observed	–	–	–	–	C[C@]1(c2ccc(Cl)cn2)Oc2cccc(C3CCN(Cc4nc5ccc(C(=O)O)cc5n4CC(O)CCO)CC3)c2O1 (stereo in doubt) [Metabolite 593]
observed	observed	observed	–	–	observed	trace	+	trace	+	observed	+	+	–	–	C[C@]1(c2ccc(Cl)cn2)Oc2cccc(-c3cc[n+](Cc4nc5ccc(C(=O)O)cc5n4C[C@@H]4CCO4)cc3)c2O1 [Metabolite 569]

Second part, the molecule before the results:

SMILES	metabolite of Compound 1 observed in rabbit hepatocyte incubations [1]	metabolite of Compound 1 observed in rat hepatocyte incubations [2]	metabolite of Compound 1 observed in mouse hepatocyte incubations [3]	detected in rat bile [4]	detected in rat bile ([4]; listed as m/z 331)	metabolite of Compound 1 observed in monkey hepatocyte incubations [5]	Relative abundance of metabolite of Compound 1, Monkey [5]	Relative abundance of metabolite of Compound 1, Rabbit [1]	Relative abundance of metabolite of Compound 1, Rat [2]	Relative abundance of metabolite of Compound 1, Mouse [3]	metabolite of Compound 1 observed in human hepatocyte incubations [6]	Relative abundance of metabolite of Compound 1, Human [6]	Relative abundance of metabolite of Compound 1, Hepatopack [7]	detected in rat plasma [8]	detected in rat plasma ([8]; listed as m/z 331)
C[C@]1(c2ccc(Cl)cn2)Oc2cccc(C3CCN(Cc4nc5ccc(C(=O)O)cc5[nH]4)CC3)c2O1 [Metabolite 505, (S)-2-((4-(2-(5-chloropyridin-2-yl)-2-methylbenzo[d][1,3]dioxol-4-yl)piperidin-1-yl)methyl)-1H-benzo[d]imidazole-6-carboxylic acid]	observed	observed	observed	–	–	–	–	–	–	–	–	–	–	–	–
C[C@]1(c2ccc(Cl)cn2)Oc2cccc(C3CCNCC3)c2O1 [Metabolite 331]	observed	observed	observed	observed	detected	observed	+	trace	trace	+	observed	+	trace	observed	detected
O=C(O)c1ccc2nc(CN3CCC(c4cccc(O)c4O)CC3)n(C[C@@H]3CCO3)c2c1 [Metabolite 438, (S)-2-((4-(2,3-dihydroxyphenyl)piperidin-1-yl)methyl)-1-(oxetan-2-ylmethyl)-1H-benzo[d]imidazole-6-carboxylic acid]	–	observed as a trace metabolite	–	–	–	observed as a trace metabolite	–	–	–	–	observed as a trace metabolite	–	–	–	–
O=C(O)c1ccc2nc(CN3CCC(c4cccc(O)c4O)CC3)n(C[C@@H]3CCO3)c2c1 [Metabolite 438]	–	–	–	–	–	–	trace	–	trace	–	–	trace	–	–	–
